Assay results published in patent US10517889B2, “Modulators of SMAD7 expression” (Ionis Pharmaceuticals, Inc., priority 2017, dated 2019).
Strand notation (5' to 3'): a small letter for the sugar, then the base; units joined by * are phosphorothioate-linked, units joined directly phosphodiester-linked; [ ] holds rarer units or linkages, { } end groups; capitals alone tell only the bases. k = constrained ethyl (cEt); [5mC] = 5-methylcytosine; d = 2'-deoxy (DNA)

These substances were tested on human SMAD7 mRNA (assay: Antisense inhibition of human SMAD7 mRNA expression in Hep3B cells by 3-10-3 cEt gapmers, 10,000 nM, electroporation (Example 2)). Details: Hep3B cells, 10,000 nM antisense oligonucleotide, electroporation, approximately 24 hours, RT-PCR primer probe set RTS5062, relative to untreated control cells.
Assay type: cell-based
Outline: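 Hep3B cells (20,000 per well) were electroporated with 10,000 nM 16-mer 3-10-3 cEt gapmer (phosphorothioate, 5-methylcytosine). After about 24 h, SMAD7 mRNA was quantified by qRT-PCR with primer probe set RTS5062, normalised to RIBOGREEN total RNA, and expressed as percent inhibition versus untreated cells.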

Substance	% Inhibition [%]
800089 (antisense kA*kG*kG*dA*dA*d[5mC]*d[5mC]*dT*dA*dT*d[5mC]*dT*dG*kG*kT*kA) [compound 800089]	0
798874 (kG*k[5mC]*kA*dG*dG*d[5mC]*dT*dG*dT*dA*d[5mC]*dG*d[5mC]*k[5mC]*kT*kT; antisense) [compound 798874]	27
799937 (antisense kT*k[5mC]*kT*dT*dT*dA*dA*dT*dT*dT*d[5mC]*dA*dG*kA*kG*kT) [compound 799937]	24
799910 (antisense k[5mC]*k[5mC]*kA*dA*d[5mC]*dT*d[5mC]*d[5mC]*dA*dT*dT*d[5mC]*dA*kT*kA*kA) [compound 799910]	36
798837 (kG*k[5mC]*kT*dG*dT*d[5mC]*d[5mC]*dG*dA*dG*dG*d[5mC]*dA*kA*kA*kA; antisense) [compound 798837]	33

Same assay, conditions: Hep3B cells, electroporation with 10,000 nM antisense oligonucleotide, approximately 24 hours, RTS5062, percent inhibition of SMAD7 mRNA relative to untreated control cells

Substance	% Inhibition [%]
799703 (antisense k[5mC]*k[5mC]*kA*dA*dT*dG*dG*d[5mC]*dA*dT*dT*dG*dA*kA*kT*kA) [compound 799703]	45
799801 (kA*kA*kT*d[5mC]*dA*dA*dG*dT*d[5mC]*d[5mC]*dT*d[5mC]*dT*kG*kG*kA; antisense) [compound 799801]	18

Same assay, conditions: Hep3B cells, electroporation with 10,000 nM antisense oligonucleotide, approximately 24 hours, SMAD7 mRNA by RT-PCR (RTS5062), relative to untreated control cells

Substance	% Inhibition [%]
830087 (kT*kT*kT*dT*dA*d[5mC]*dA*dG*dG*dA*dT*dA*d[5mC]*kA*k[5mC]*kT; antisense) [compound 830087]	35
799333 (kA*kG*kA*dA*dA*dA*d[5mC]*d[5mC]*dT*dG*dG*dA*dA*kG*kG*kG; antisense) [compound 799333]	24
798664 (kG*kG*k[5mC]*d[5mC]*dT*dG*d[5mC]*dG*d[5mC]*dT*d[5mC]*d[5mC]*dG*kG*k[5mC]*kT; antisense) [compound 798664]	7
799506 (antisense kG*kG*kA*dG*dA*dG*d[5mC]*d[5mC]*d[5mC]*dG*dG*d[5mC]*dT*kA*kA*kG) [compound 799506]	4
799453 (antisense kA*k[5mC]*kA*d[5mC]*dA*dG*d[5mC]*dA*d[5mC]*dT*dG*d[5mC]*d[5mC]*kA*kG*kG) [compound 799453]	58
799865 (kG*kG*kG*dA*d[5mC]*dA*dG*dA*d[5mC]*dT*dG*dT*d[5mC]*k[5mC]*k[5mC]*k[5mC]; antisense) [compound 799865]	0
830113 (kA*kG*k[5mC]*d[5mC]*d[5mC]*d[5mC]*dA*dT*dT*d[5mC]*dA*dT*dT*kA*kA*kG; antisense) [compound 830113]	36
798766 (k[5mC]*kT*kG*dA*dA*d[5mC]*dA*d[5mC]*dT*dT*dT*dG*d[5mC]*kA*k[5mC]*kA; antisense) [compound 798766]	34
830108 (kT*kT*k[5mC]*dA*dT*dT*dA*dA*dG*d[5mC]*d[5mC]*d[5mC]*dG*k[5mC]*kT*k[5mC]; antisense) [compound 830108]	54
798693 (antisense kG*k[5mC]*k[5mC]*dG*dG*dG*d[5mC]*dG*d[5mC]*dA*d[5mC]*dG*dG*k[5mC]*kT*k[5mC]) [compound 798693]	0
830192 (antisense kA*k[5mC]*kT*dA*dA*dT*d[5mC]*dA*dG*dA*dT*dG*d[5mC]*k[5mC]*kT*kG) [compound 830192]	41

Same assay, conditions: Hep3B cells, electroporation with 10,000 nM antisense oligonucleotide, approximately 24 hours, primer probe set RTS5062, relative to untreated control cells

Substance	% inhibition of SMAD7 mRNA expression [%]	% Inhibition [%]
798730 (antisense kG*kG*kT*dG*dA*d[5mC]*d[5mC]*dT*dT*dT*dG*dG*d[5mC]*kA*k[5mC]*k[5mC]) [compound 798730]	0	
798758 (kG*k[5mC]*kT*dG*d[5mC]*dG*d[5mC]*dA*dG*dG*d[5mC]*dT*dG*k[5mC]*kG*k[5mC]; antisense) [compound 798758]	0	
799026 (k[5mC]*k[5mC]*kG*d[5mC]*dT*dT*dG*dG*dG*dA*d[5mC]*dT*dG*k[5mC]*kA*kA; antisense) [compound 799026]	1	
798964 (antisense k[5mC]*k[5mC]*k[5mC]*dT*dT*d[5mC]*dT*dT*d[5mC]*d[5mC]*dA*dA*dA*kA*kA*kA) [compound 798964]	32	
772543 (antisense kG*kG*kA*d[5mC]*dG*dA*dG*d[5mC]*dG*d[5mC]*dA*dG*dA*kT*k[5mC]*kG) [compound 772543]	58	
798932 (antisense k[5mC]*kT*k[5mC]*dA*dG*dG*dA*dG*dG*dA*dA*dA*dA*kT*kA*kT) [compound 798932]	0	
798657 (k[5mC]*k[5mC]*kG*d[5mC]*dG*d[5mC]*dG*dG*d[5mC]*d[5mC]*d[5mC]*dG*d[5mC]*kG*k[5mC]*k[5mC]; antisense) [compound 798657]	0	
799010 (k[5mC]*kG*kT*dT*dG*dT*d[5mC]*dT*d[5mC]*d[5mC]*d[5mC]*d[5mC]*dA*kT*k[5mC]*kT; antisense) [compound 799010]	57	
798972 (antisense kT*kA*kT*d[5mC]*dA*dG*dG*dG*dT*dG*dT*d[5mC]*d[5mC]*kT*kG*k[5mC]) [compound 798972]	18	
799194 (antisense kT*kG*k[5mC]*dT*dA*dA*dA*dT*dT*dT*d[5mC]*d[5mC]*dA*kA*kT*kG) [compound 799194]		42
799385 (antisense kT*kG*k[5mC]*d[5mC]*d[5mC]*dA*dA*d[5mC]*d[5mC]*d[5mC]*dT*dT*d[5mC]*kA*k[5mC]*kT) [compound 799385]	31	
799463 (antisense kT*kG*kG*dT*dA*dA*dG*d[5mC]*dA*d[5mC]*dT*dA*dG*kG*kT*kT) [compound 799463]	33	
799323 (antisense k[5mC]*k[5mC]*kA*dG*dG*dA*dG*dG*dG*dT*dA*dT*dG*k[5mC]*kA*k[5mC]) [compound 799323]	60	
790543 (kT*kG*kA*dA*dA*dA*dG*d[5mC]*dA*dA*dG*d[5mC]*dA*k[5mC]*kT*k[5mC]; antisense) [compound 790543]		23
799267 (antisense kG*kT*kT*d[5mC]*dG*dG*d[5mC]*d[5mC]*dT*dT*d[5mC]*d[5mC]*dA*kT*k[5mC]*k[5mC]) [compound 799267]	62	
799006 (k[5mC]*kG*k[5mC]*dT*d[5mC]*d[5mC]*dT*dG*d[5mC]*dA*d[5mC]*dA*d[5mC]*kG*k[5mC]*kG; antisense) [compound 799006]	0	

Same assay, conditions: Hep3B cells, electroporation, 10,000 nM antisense oligonucleotide, approximately 24 hours, RTS5062, relative to untreated control cells

Substance	% inhibition of SMAD7 mRNA expression [%]
799633 (kA*kG*kA*d[5mC]*dT*dG*d[5mC]*d[5mC]*dA*dA*dA*dT*d[5mC]*kA*k[5mC]*kA; antisense) [compound 799633]	25
799777 (kA*kG*kT*d[5mC]*dA*dG*d[5mC]*d[5mC]*dA*dG*dA*dA*dG*kG*kA*k[5mC]; antisense) [compound 799777]	34
799522 (antisense kT*kT*kT*dA*dA*dA*dG*dA*d[5mC]*dA*dG*dG*dT*kT*kT*k[5mC]) [compound 799522]	32
799288 (antisense kT*kA*kA*dT*dG*dG*dT*d[5mC]*dT*dG*d[5mC]*dT*d[5mC]*kA*kG*kG) [compound 799288]	23
799699 (antisense k[5mC]*kA*kA*dA*dA*d[5mC]*dA*dG*dT*dG*dG*dA*d[5mC]*k[5mC]*kA*kT) [compound 799699]	57
799738 (antisense kT*k[5mC]*kA*dA*dA*dA*dA*dA*dT*dG*dT*d[5mC]*d[5mC]*k[5mC]*k[5mC]*kA) [compound 799738]	50
799797 (kG*kA*k[5mC]*dA*dT*dT*dA*dG*dA*dT*dA*d[5mC]*dT*kG*kT*k[5mC]; antisense) [compound 799797]	27

Same assay, conditions: SMAD7 mRNA, Hep3B cells, electroporation with 10,000 nM antisense oligonucleotide, approximately 24 hours, primer probe set RTS5062, relative to untreated control cells

Substance	% Inhibition [%]
829853 (antisense kA*k[5mC]*kT*d[5mC]*dT*dT*dG*dT*dT*dG*dT*d[5mC]*d[5mC]*kG*kA*kA) [compound 829853]	42
829958 (kG*k[5mC]*kA*d[5mC]*d[5mC]*dT*dT*dG*dT*d[5mC]*dA*d[5mC]*d[5mC]*k[5mC]*kG*kT; antisense) [compound 829958]	51
830011 (antisense k[5mC]*k[5mC]*kA*dG*dT*d[5mC]*dT*d[5mC]*dA*dA*dA*dT*dG*kG*kG*k[5mC]) [compound 830011]	25
829855 (antisense kA*kG*k[5mC]*dT*dG*dA*d[5mC]*dT*d[5mC]*dT*dT*dG*dT*kT*kG*kT) [compound 829855]	0
829908 (antisense k[5mC]*kT*kA*d[5mC]*d[5mC]*dG*dG*d[5mC]*dT*dG*dT*dT*dG*kA*kA*kG) [compound 829908]	1
829892 (antisense kG*kA*kT*d[5mC]*dT*dG*d[5mC]*dA*d[5mC]*dG*dG*dT*dA*kA*kA*kG) [compound 829892]	32
829869 (antisense k[5mC]*kA*kG*dT*dG*dT*dG*dG*d[5mC]*dG*dG*dA*d[5mC]*kT*kT*kG) [compound 829869]	37
829867 (antisense kT*kG*kT*dG*dG*d[5mC]*dG*dG*dA*d[5mC]*dT*dT*dG*kA*kT*kG) [compound 829867]	22
